Here are results for two compounds from US12274709B2, “Dual-drug co-delivery system, preparation method therefor and use thereof” (Institute of Basic Medical Sciences Chinese Academy of …, priority 2019, dated 2025).

Type in all cases: cell-based
In one data set the test system is MCF7 cells. The data set is described as follows: CCK8 cell viability, MCF7 cells. The following applies: Homo sapiens, HHT 25 ng/mL, DOX 100 ng/mL (4:1). The protocol:
(§1) Cells in the Corning 96-well U plates were incubated for 24 h and then washed with PBS, 110 μL CCK8 dilution was added to each well and incubated for 2 h, and the absorbance values (OD) at wavelengths of 450 and 630 nm were measured using the microplate reader. The cell viability was calculated according to Formula 1.

Another data set has as its system K562 cells. The data set is described as follows: CCK8 cell viability, K562 cells. The following applies: Homo sapiens, HHT 25 ng/mL, DOX 375 ng/mL (15:1). The protocol:
as §1

Another data set concerns HeLa cells. The data set is described as follows: CCK8 cell viability, HeLa cells. The following applies: Homo sapiens, HHT 20 ng/mL, DOX 120 ng/mL (6:1). The protocol:
as §1

For data set [1], the system named is U937R (cytarabine-resistant strain, acute myeloid leukemia). The data set is described as follows: CCK8 cell viability, U937R cells. The note with it: HHT 15 ng/mL, DOX 120 ng/mL (8:1). The protocol:
as §1

For data set [2], the system named is HL60/A cells (HL60 cells resistant to Doxorubicin). The data set can be described thus: CCK8 cell viability, HL60/A cells. The following applies: 24 h. The protocol:
Taking HL60/A cells (HL60 cells resistant to Doxorubicin) as an example, the specific method was as follows:
as §1

Molecules are shown by their SMILES. Structures can show the parent of a compound that is named as a salt.

The viability is a per cent measure of how many cells are alive, often set against a control.

On to `COc1cccc2c1C(=O)c1c(O)c3c(c(O)c1C2=O)C[C@@](O)(C(=O)CO)C[C@@H]3O[C@H]1C[C@H](N)[C@H](O)[C@H](C)O1` [DOX, Doxorubicin hydrochloride], for which, in the data set on MCF7 cells, the viability at 0.1 µg/mL was determined as 92%. The viability at 0.375 µg/mL in the data set with K562 cells was found to be 80%. Moreover, the viability at 0.12 µg/mL stood at 90% in the data set with HeLa cells and 55% in data set [1]. The “cytotoxicity against Doxorubicin-resistant strain HL60/A” value in data set [2] (DOX 200 ng/mL, FIG. 3) is “no cytotoxicity”.
`COC(=O)C[C@](O)(CCCC(C)(C)O)C(=O)O[C@@H]1C(OC)=C[C@]23CCCN2CCc2cc4c(cc2[C@H]13)OCO4` [HHT, Homoharringtonine]: the viability at 0.025 µg/mL in the data set with MCF7 cells came to 50%; with K562 cells, 59%; in data set [2] (Homo sapiens, HL60/A cells, HHT 25 ng/mL, DOX 200 ng/mL (DOX:HHT 8:1), FIG. 3, system of Example 1), 56%. The compound further registered a viability at 0.02 µg/mL in the data set on HeLa cells of 41%. In addition, in data set [1], the viability at 0.015 µg/mL amounted to 59%.
